Reference: ChEMBL document CHEMBL1201862, “PubChem BioAssay data set” (2004)
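Step 1: Grow cells in 96-well plates. Step 2: Expose to compound for 48 hours at 5 concentrations. Step 3: Interpolate endpoints linearly; if unreached, use highest concentration. Here, GI50 denotes the concentration required for 50% inhibition of growth.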 Activity calls are given as the source filed them. No stated cut-off is given here; in the data, active = GI50 up to about 1.1 µM and inactive = higher.

Tests used:
Test in all cases: DTP human tumour cell line panel, 48 h
KM12 = test system: KM12
EKVX = test system: EKVX
NCI-H23 = test system: NCI-H23
HL-60 = test system: HL-60
A498 = test system: A498
OVCAR-5 = test system: OVCAR-5
COLO 205 = test system: COLO 205
RXF 393 = test system: RXF 393
IGROV-1 = test system: IGROV-1
TK-10 = test system: TK-10
HCT-15 = test system: HCT-15
SF-268 = test system: SF-268
NCI-H522 = test system: NCI-H522
ACHN = test system: ACHN
SF-295 = test system: SF-295
UACC-257 = test system: UACC-257
CAKI-1 = test system: CAKI-1

Structure (SMILES)	GI50 (KM12)	GI50 (EKVX)	GI50 (NCI-H23)	GI50 (HL-60)	GI50 (A498)	GI50 (OVCAR-5)	GI50 (COLO 205)	GI50 (RXF 393)	GI50 (IGROV-1)	GI50 (TK-10)	GI50 (HCT-15)	GI50 (SF-268)	GI50 (NCI-H522)	GI50 (ACHN)	GI50 (SF-295)	GI50 (UACC-257)	GI50 (CAKI-1)
O=C(O)c1c[nH]c2c(ccc3ncccc32)c1=O	> 100 µM (inactive)	> 100 µM (inactive)	> 100 µM (inactive)	> 100 µM (inactive)	> 100 µM (inactive)	> 100 µM (inactive)	> 100 µM (inactive)	> 100 µM (inactive)	> 100 µM (inactive)	> 100 µM (inactive)	> 100 µM	> 100 µM (inactive)	> 100 µM (inactive)	> 100 µM (inactive)	–	–	–
COc1cc(C(N)=O)c(OC)c(OC)c1OC	> 100 µM (inactive)	> 100 µM (inactive)	> 100 µM (inactive)	> 100 µM (inactive)	> 100 µM (inactive)	> 100 µM (inactive)	> 100 µM (inactive)	> 100 µM (inactive)	> 100 µM (inactive)	> 100 µM (inactive)	> 100 µM	> 100 µM (inactive)	> 100 µM (inactive)	> 100 µM (inactive)	> 100 µM (inactive)	–	–
CN1CCn2c(Br)ccc2C1=O	> 100 µM (inactive)	> 100 µM (inactive)	> 100 µM (inactive)	> 100 µM (inactive)	> 100 µM (inactive)	–	> 100 µM (inactive)	> 100 µM (inactive)	> 100 µM (inactive)	> 100 µM (inactive)	> 100 µM	> 100 µM (inactive)	> 100 µM (inactive)	> 100 µM (inactive)	> 100 µM (inactive)	> 100 µM (inactive)	> 100 µM (inactive)
CCOC(=O)C(=O)Nc1c(C(C)C)cccc1C(C)C	> 100 µM (inactive)	> 100 µM (inactive)	> 100 µM (inactive)	> 100 µM (inactive)	> 100 µM (inactive)	–	> 100 µM (inactive)	> 100 µM (inactive)	> 100 µM (inactive)	> 100 µM (inactive)	> 100 µM	> 100 µM (inactive)	> 100 µM (inactive)	> 100 µM (inactive)	> 100 µM (inactive)	> 100 µM (inactive)	> 100 µM (inactive)
CC(=O)OCC1OC(OC2C(CSC3OC(COC(C)=O)C(OC(C)=O)C(OC(C)=O)C3OC(C)=O)OC(OC(C)=O)C(OC(C)=O)C2OC(C)=O)C(OC(C)=O)C(OC(C)=O)C1OC(C)=O (stereo not drawn)	> 100 µM (inactive)	> 100 µM (inactive)	> 100 µM (inactive)	–	–	23.7 µM (inactive)	> 100 µM (inactive)	–	> 100 µM (inactive)	> 100 µM (inactive)	> 100 µM	> 100 µM (inactive)	> 100 µM (inactive)	> 100 µM (inactive)	> 100 µM (inactive)	–	> 100 µM (inactive)
O=S1(=O)CSc2ccc3ccccc3c2-c2c1ccc1ccccc21	> 100 µM (inactive)	–	> 100 µM (inactive)	> 100 µM (inactive)	–	> 100 µM (inactive)	> 100 µM (inactive)	> 100 µM (inactive)	> 100 µM (inactive)	> 100 µM (inactive)	–	> 100 µM (inactive)	> 100 µM (inactive)	> 100 µM (inactive)	> 100 µM (inactive)	> 100 µM (inactive)	> 100 µM (inactive)
CN(C)CC1CCCC/C1=N/O (stereo not drawn)	> 100 µM (inactive)	> 100 µM (inactive)	> 100 µM (inactive)	> 100 µM (inactive)	> 100 µM (inactive)	> 100 µM (inactive)	> 100 µM (inactive)	> 100 µM (inactive)	> 100 µM (inactive)	> 100 µM (inactive)	> 100 µM	> 100 µM (inactive)	> 100 µM (inactive)	> 100 µM (inactive)	> 100 µM (inactive)	> 100 µM (inactive)	> 100 µM (inactive)
CCOC(=O)C1(c2ccccc2)CCCNCC1 (stereo not drawn)	> 100 µM (inactive)	> 100 µM (inactive)	35.3 µM (inactive)	98.4 µM (inactive)	45.8 µM (inactive)	81.3 µM (inactive)	> 100 µM (inactive)	> 100 µM (inactive)	> 100 µM (inactive)	> 100 µM (inactive)	72.9 µM	> 100 µM (inactive)	7.91 µM (inactive)	85.9 µM (inactive)	> 100 µM (inactive)	68.1 µM (inactive)	> 100 µM (inactive)
O=C(NS(=O)(=O)c1ccccc1)C(Cc1ccccc1)C(Cc1ccccc1)C(=O)NS(=O)(=O)c1ccccc1 (stereo not drawn)	> 100 µM (inactive)	> 100 µM (inactive)	> 100 µM (inactive)	> 100 µM (inactive)	> 100 µM (inactive)	> 100 µM (inactive)	> 100 µM (inactive)	> 100 µM (inactive)	> 100 µM (inactive)	> 100 µM (inactive)	–	> 100 µM (inactive)	> 100 µM (inactive)	> 100 µM (inactive)	> 100 µM (inactive)	> 100 µM (inactive)	> 100 µM (inactive)
Cc1nc2cc3nc4ccccc4c(O)c3cc2s1	> 100 µM (inactive)	> 100 µM (inactive)	> 100 µM (inactive)	> 100 µM (inactive)	> 100 µM (inactive)	> 100 µM (inactive)	> 100 µM (inactive)	> 100 µM (inactive)	> 100 µM (inactive)	> 100 µM (inactive)	> 100 µM	> 100 µM (inactive)	> 100 µM (inactive)	> 100 µM (inactive)	> 100 µM (inactive)	> 100 µM (inactive)	> 100 µM (inactive)
NC(=S)N/N=C1\C(=O)N(c2cccc([N+](=O)[O-])c2)C(=O)C1C(=O)Nc1cccc([N+](=O)[O-])c1 (stereo not drawn)	–	> 100 µM (inactive)	> 100 µM (inactive)	38.4 µM (inactive)	> 100 µM (inactive)	> 100 µM (inactive)	> 100 µM (inactive)	> 100 µM (inactive)	> 100 µM (inactive)	> 100 µM (inactive)	> 100 µM	> 100 µM (inactive)	> 100 µM (inactive)	> 100 µM (inactive)	> 100 µM (inactive)	> 100 µM (inactive)	> 100 µM (inactive)
O=C(Cc1nc2ccccc2c(=O)n1-c1ccccc1Cl)c1ccncc1	> 100 µM (inactive)	> 100 µM (inactive)	> 100 µM (inactive)	37.6 µM (inactive)	> 100 µM (inactive)	> 100 µM (inactive)	> 100 µM (inactive)	> 100 µM (inactive)	> 100 µM (inactive)	> 100 µM (inactive)	> 100 µM	> 100 µM (inactive)	> 100 µM (inactive)	> 100 µM (inactive)	> 100 µM (inactive)	> 100 µM (inactive)	> 100 µM (inactive)
CC(=O)/C(=C\C1=CCCO1)C(=O)Nc1ccccc1C	> 100 µM (inactive)	> 100 µM (inactive)	> 100 µM (inactive)	> 100 µM (inactive)	–	> 100 µM (inactive)	–	> 100 µM (inactive)	> 100 µM (inactive)	> 100 µM (inactive)	> 100 µM	> 100 µM (inactive)	> 100 µM (inactive)	> 100 µM (inactive)	> 100 µM (inactive)	> 100 µM (inactive)	> 100 µM (inactive)
Cc1ccc(S(=O)(=O)C2c3nc4ccccc4cc3-c3nc4ccccc4nc32)cc1 (stereo not drawn)	> 100 µM (inactive)	> 100 µM (inactive)	> 100 µM (inactive)	> 100 µM (inactive)	> 100 µM (inactive)	> 100 µM (inactive)	> 100 µM (inactive)	–	> 100 µM (inactive)	> 100 µM (inactive)	> 100 µM	> 100 µM (inactive)	> 100 µM (inactive)	> 100 µM (inactive)	–	> 100 µM (inactive)	> 100 µM (inactive)
Nc1c(S(=O)(=O)c2ccc(Cl)cc2)c2nc3ccccc3nc2n2ccnc12	> 100 µM (inactive)	93.8 µM (inactive)	> 100 µM (inactive)	30.1 µM (inactive)	–	> 100 µM (inactive)	> 100 µM (inactive)	–	98.6 µM (inactive)	24.9 µM (inactive)	> 100 µM	43.1 µM (inactive)	53.7 µM (inactive)	40.3 µM (inactive)	> 100 µM (inactive)	> 100 µM (inactive)	–
CCC1C(=O)OCc2c1cc1n(c2=O)CCC12OCCO2 (stereo not drawn)	> 100 µM (inactive)	> 100 µM (inactive)	> 100 µM (inactive)	> 100 µM (inactive)	> 100 µM (inactive)	> 100 µM (inactive)	> 100 µM (inactive)	–	> 100 µM (inactive)	> 100 µM (inactive)	> 100 µM	> 100 µM (inactive)	> 100 µM (inactive)	> 100 µM (inactive)	> 100 µM (inactive)	> 100 µM (inactive)	> 100 µM (inactive)
CC(=O)CCn1ncc(Cl)c(Cl)c1=O	17.7 µM (inactive)	18.6 µM (inactive)	15 µM (inactive)	8.39 µM (inactive)	24.9 µM (inactive)	19.1 µM (inactive)	–	17.3 µM (inactive)	18.7 µM (inactive)	48.6 µM (inactive)	6.55 µM	12.1 µM (inactive)	–	17 µM (inactive)	19.1 µM (inactive)	16.5 µM (inactive)	1.91 µM (inactive)
